PubChem BioAssay (NCI)
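The compound was tested at five concentrations on cells cultured in 96-well plates, with a 48-hour exposure period. At the TGI there is no net growth.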

How the values were obtained:
Assay in all cases: inhibition of tumour cell growth, NCI panel, 48 h
K-562 leukemia = test system: K-562 leukemia
SK-OV-3 ovarian = test system: SK-OV-3 ovarian
HT29 colon = test system: HT29 colon
SK-MEL-2 melanoma = test system: SK-MEL-2 melanoma
NCI-H226 lung = test system: NCI-H226 lung
SF-539 CNS = test system: SF-539 CNS
A498 renal = test system: A498 renal
DLD-1 colon = test system: DLD-1 colon
SF-268 CNS = test system: SF-268 CNS
SK-MEL-5 melanoma = test system: SK-MEL-5 melanoma
U251 CNS = test system: U251 CNS
OVCAR-4 ovarian = test system: OVCAR-4 ovarian
OVCAR-5 ovarian = test system: OVCAR-5 ovarian
DMS 273 small cell lung = test system: DMS 273 small cell lung
M14 melanoma = test system: M14 melanoma
SN12C renal = test system: SN12C renal
RXF 393 renal = test system: RXF 393 renal
LOX IMVI melanoma = test system: LOX IMVI melanoma
LXFL 529 NSCLC = test system: LXFL 529 NSCLC
HCC-2998 colon = test system: HCC-2998 colon
IGROV1 ovarian = test system: IGROV1 ovarian
HCT-15 colon = test system: HCT-15 colon
UACC-257 melanoma = test system: UACC-257 melanoma
CAKI-1 renal = test system: CAKI-1 renal
HOP-62 NSCLC = test system: HOP-62 NSCLC
XF 498 CNS = test system: XF 498 CNS
HL-60(TB) leukemia = test system: HL-60(TB) leukemia
SNB-19 CNS = test system: SNB-19 CNS
ACHN renal = test system: ACHN renal
UO-31 renal = test system: UO-31 renal
A549 NSCLC = test system: A549 NSCLC
OVCAR-8 ovarian = test system: OVCAR-8 ovarian
SNB-75 CNS = test system: SNB-75 CNS
786-0 renal = test system: 786-0 renal
SF-295 CNS = test system: SF-295 CNS
DMS 114 small cell lung = test system: DMS 114 small cell lung
RPMI-8226 leukemia = test system: RPMI-8226 leukemia
CCRF-CEM leukemia = test system: CCRF-CEM leukemia
TK-10 renal = test system: TK-10 renal
OVCAR-3 ovarian = test system: OVCAR-3 ovarian
COLO 205 colon = test system: COLO 205 colon
KM20L2 colon = test system: KM20L2 colon
UACC-62 melanoma = test system: UACC-62 melanoma
SNB-78 CNS = test system: SNB-78 CNS
HOP-92 NSCLC = test system: HOP-92 NSCLC
RXF-631 renal = test system: RXF-631 renal
NCI-H522 lung = test system: NCI-H522 lung
NCI-H460 lung = test system: NCI-H460 lung
SW-620 colon = test system: SW-620 colon
HCT-116 colon = test system: HCT-116 colon
MALME-3M melanoma = test system: MALME-3M melanoma
NCI-H23 lung = test system: NCI-H23 lung
EKVX NSCLC = test system: EKVX NSCLC
KM12 colon = test system: KM12 colon
M19-MEL melanoma = test system: M19-MEL melanoma
SK-MEL-28 melanoma = test system: SK-MEL-28 melanoma
MOLT-4 leukemia = test system: MOLT-4 leukemia
SR leukemia = test system: SR leukemia

CC1=C(C(=O)CC(=O)C(=O)Nc2ccccc2C(F)(F)F)Sc2ccccc2N1
TGI (K-562 leukemia): > 100 µM
TGI (SK-OV-3 ovarian): > 100 µM
TGI (HT29 colon): > 100 µM
TGI (SK-MEL-2 melanoma): > 100 µM
TGI (NCI-H226 lung): 87.8 µM
TGI (SF-539 CNS): > 100 µM
TGI (A498 renal): > 100 µM
TGI (DLD-1 colon): > 100 µM
TGI (SF-268 CNS): 71.4 µM
TGI (SK-MEL-5 melanoma): > 100 µM
TGI (U251 CNS): > 100 µM
TGI (OVCAR-4 ovarian): > 100 µM
TGI (OVCAR-5 ovarian): > 100 µM
TGI (DMS 273 small cell lung): > 100 µM
TGI (M14 melanoma): > 100 µM
TGI (SN12C renal): > 100 µM
TGI (RXF 393 renal): 66.2 µM
TGI (LOX IMVI melanoma): > 100 µM
TGI (LXFL 529 NSCLC): > 100 µM
TGI (HCC-2998 colon): > 100 µM
TGI (IGROV1 ovarian): > 100 µM
TGI (HCT-15 colon): > 100 µM
TGI (UACC-257 melanoma): > 100 µM
TGI (CAKI-1 renal): > 100 µM
TGI (HOP-62 NSCLC): 96.8 µM
TGI (XF 498 CNS): > 100 µM
TGI (HL-60(TB) leukemia): > 100 µM
TGI (SNB-19 CNS): > 100 µM
TGI (ACHN renal): > 100 µM
TGI (UO-31 renal): 61.7 µM
TGI (A549 NSCLC): > 100 µM
TGI (OVCAR-8 ovarian): > 100 µM
TGI (SNB-75 CNS): 80.1 µM
TGI (786-0 renal): > 100 µM
TGI (SF-295 CNS): > 100 µM
TGI (DMS 114 small cell lung): > 100 µM
TGI (RPMI-8226 leukemia): > 100 µM
TGI (CCRF-CEM leukemia): > 100 µM
TGI (TK-10 renal): > 100 µM
TGI (OVCAR-3 ovarian): > 100 µM
TGI (COLO 205 colon): > 100 µM
TGI (KM20L2 colon): > 100 µM
TGI (UACC-62 melanoma): > 100 µM
TGI (SNB-78 CNS): > 100 µM
TGI (HOP-92 NSCLC): 83.5 µM
TGI (RXF-631 renal): > 100 µM
TGI (NCI-H522 lung): 68.4 µM
TGI (NCI-H460 lung): > 100 µM
TGI (SW-620 colon): > 100 µM
TGI (HCT-116 colon): > 100 µM
TGI (MALME-3M melanoma): > 100 µM
TGI (NCI-H23 lung): 85.6 µM
TGI (EKVX NSCLC): > 100 µM
TGI (KM12 colon): > 100 µM

COc1ccc(/C(=N\N=C(N)N)C(c2ccc(OC)cc2)C2OC(=O)c3ccccc32)cc1 (stereo not drawn)
TGI (M19-MEL melanoma): > 100 µM
TGI (K-562 leukemia): > 100 µM
TGI (SK-OV-3 ovarian): > 100 µM
TGI (SK-MEL-28 melanoma): > 100 µM
TGI (HT29 colon): > 100 µM
TGI (NCI-H226 lung): > 100 µM
TGI (SF-539 CNS): > 100 µM
TGI (MOLT-4 leukemia): > 100 µM
TGI (DLD-1 colon): > 100 µM
TGI (SF-268 CNS): > 100 µM
TGI (SK-MEL-5 melanoma): > 100 µM
TGI (U251 CNS): > 100 µM
TGI (OVCAR-4 ovarian): > 100 µM
TGI (OVCAR-5 ovarian): > 100 µM
TGI (DMS 273 small cell lung): > 100 µM
TGI (M14 melanoma): > 100 µM
TGI (SN12C renal): > 100 µM
TGI (RXF 393 renal): > 100 µM
TGI (LOX IMVI melanoma): > 100 µM
TGI (LXFL 529 NSCLC): > 100 µM
TGI (HCC-2998 colon): > 100 µM
TGI (IGROV1 ovarian): > 100 µM
TGI (HCT-15 colon): > 100 µM
TGI (UACC-257 melanoma): > 100 µM
TGI (CAKI-1 renal): > 100 µM
TGI (HOP-62 NSCLC): > 100 µM
TGI (XF 498 CNS): > 100 µM
TGI (HL-60(TB) leukemia): > 100 µM
TGI (SNB-19 CNS): > 100 µM
TGI (ACHN renal): > 100 µM
TGI (UO-31 renal): > 100 µM
TGI (A549 NSCLC): > 100 µM
TGI (OVCAR-8 ovarian): > 100 µM
TGI (SNB-75 CNS): > 100 µM
TGI (786-0 renal): > 100 µM
TGI (SF-295 CNS): > 100 µM
TGI (DMS 114 small cell lung): > 100 µM
TGI (RPMI-8226 leukemia): > 100 µM
TGI (CCRF-CEM leukemia): > 100 µM
TGI (OVCAR-3 ovarian): > 100 µM
TGI (COLO 205 colon): > 100 µM
TGI (SR leukemia): > 100 µM
TGI (KM20L2 colon): > 100 µM
TGI (UACC-62 melanoma): > 100 µM
TGI (SNB-78 CNS): > 100 µM
TGI (HOP-92 NSCLC): > 100 µM
TGI (RXF-631 renal): > 100 µM
TGI (NCI-H522 lung): > 100 µM
TGI (NCI-H460 lung): > 100 µM
TGI (SW-620 colon): > 100 µM
TGI (HCT-116 colon): > 100 µM
TGI (MALME-3M melanoma): > 100 µM
TGI (NCI-H23 lung): > 100 µM
TGI (KM12 colon): > 100 µM
